Laboratory results reported in ChEMBL document CHEMBL4507260 (2021).

How the values were obtained:
Conditions in all cases: Compound concentration 1000.0 nM
[1] = target: Mitogen-activated protein kinase kinase kinase kinase 5 (Homo sapiens) (UniProt Q9Y4K4)
[2] = target: MAP kinase-interacting serine/threonine-protein kinase 1 (Homo sapiens) (UniProt Q9BUB5)
[3] = target: RAC-alpha serine/threonine-protein kinase (Homo sapiens) (UniProt P31749)
[4] = target: SRSF protein kinase 2 (Homo sapiens) (UniProt P78362)
[5] = target: cAMP-dependent protein kinase catalytic subunit beta (Homo sapiens) (UniProt P22694)
[6] = system: Receptor-type tyrosine-protein kinase FLT3 (Homo sapiens), P36888 [D835Y]
[7] = target: Macrophage colony-stimulating factor 1 receptor (Homo sapiens) (UniProt P07333)
[8] = target: Atypical kinase COQ8A, mitochondrial (Homo sapiens) (UniProt Q8NI60)
[9] = system: Epidermal growth factor receptor (Homo sapiens), P00533 [UNDEFINED MUTATION]
[10] = target: Atypical kinase COQ8B, mitochondrial (Homo sapiens) (UniProt Q96D53)
[11] = target: Casein kinase I isoform delta (Homo sapiens) (UniProt P48730)
[12] = target: Serine/threonine-protein kinase WNK4 (Homo sapiens) (UniProt Q96J92)
[13] = target: Serine/threonine-protein kinase pim-2 (Homo sapiens) (UniProt Q9P1W9)
[14] = target: Receptor-interacting serine/threonine-protein kinase 1 (Homo sapiens) (UniProt Q13546)
[15] = target: Proto-oncogene tyrosine-protein kinase ROS (Homo sapiens) (UniProt P08922)
Proto-oncogene tyrosine-protein kinase ROS (Homo sapiens), sequence (P08922 whole entry): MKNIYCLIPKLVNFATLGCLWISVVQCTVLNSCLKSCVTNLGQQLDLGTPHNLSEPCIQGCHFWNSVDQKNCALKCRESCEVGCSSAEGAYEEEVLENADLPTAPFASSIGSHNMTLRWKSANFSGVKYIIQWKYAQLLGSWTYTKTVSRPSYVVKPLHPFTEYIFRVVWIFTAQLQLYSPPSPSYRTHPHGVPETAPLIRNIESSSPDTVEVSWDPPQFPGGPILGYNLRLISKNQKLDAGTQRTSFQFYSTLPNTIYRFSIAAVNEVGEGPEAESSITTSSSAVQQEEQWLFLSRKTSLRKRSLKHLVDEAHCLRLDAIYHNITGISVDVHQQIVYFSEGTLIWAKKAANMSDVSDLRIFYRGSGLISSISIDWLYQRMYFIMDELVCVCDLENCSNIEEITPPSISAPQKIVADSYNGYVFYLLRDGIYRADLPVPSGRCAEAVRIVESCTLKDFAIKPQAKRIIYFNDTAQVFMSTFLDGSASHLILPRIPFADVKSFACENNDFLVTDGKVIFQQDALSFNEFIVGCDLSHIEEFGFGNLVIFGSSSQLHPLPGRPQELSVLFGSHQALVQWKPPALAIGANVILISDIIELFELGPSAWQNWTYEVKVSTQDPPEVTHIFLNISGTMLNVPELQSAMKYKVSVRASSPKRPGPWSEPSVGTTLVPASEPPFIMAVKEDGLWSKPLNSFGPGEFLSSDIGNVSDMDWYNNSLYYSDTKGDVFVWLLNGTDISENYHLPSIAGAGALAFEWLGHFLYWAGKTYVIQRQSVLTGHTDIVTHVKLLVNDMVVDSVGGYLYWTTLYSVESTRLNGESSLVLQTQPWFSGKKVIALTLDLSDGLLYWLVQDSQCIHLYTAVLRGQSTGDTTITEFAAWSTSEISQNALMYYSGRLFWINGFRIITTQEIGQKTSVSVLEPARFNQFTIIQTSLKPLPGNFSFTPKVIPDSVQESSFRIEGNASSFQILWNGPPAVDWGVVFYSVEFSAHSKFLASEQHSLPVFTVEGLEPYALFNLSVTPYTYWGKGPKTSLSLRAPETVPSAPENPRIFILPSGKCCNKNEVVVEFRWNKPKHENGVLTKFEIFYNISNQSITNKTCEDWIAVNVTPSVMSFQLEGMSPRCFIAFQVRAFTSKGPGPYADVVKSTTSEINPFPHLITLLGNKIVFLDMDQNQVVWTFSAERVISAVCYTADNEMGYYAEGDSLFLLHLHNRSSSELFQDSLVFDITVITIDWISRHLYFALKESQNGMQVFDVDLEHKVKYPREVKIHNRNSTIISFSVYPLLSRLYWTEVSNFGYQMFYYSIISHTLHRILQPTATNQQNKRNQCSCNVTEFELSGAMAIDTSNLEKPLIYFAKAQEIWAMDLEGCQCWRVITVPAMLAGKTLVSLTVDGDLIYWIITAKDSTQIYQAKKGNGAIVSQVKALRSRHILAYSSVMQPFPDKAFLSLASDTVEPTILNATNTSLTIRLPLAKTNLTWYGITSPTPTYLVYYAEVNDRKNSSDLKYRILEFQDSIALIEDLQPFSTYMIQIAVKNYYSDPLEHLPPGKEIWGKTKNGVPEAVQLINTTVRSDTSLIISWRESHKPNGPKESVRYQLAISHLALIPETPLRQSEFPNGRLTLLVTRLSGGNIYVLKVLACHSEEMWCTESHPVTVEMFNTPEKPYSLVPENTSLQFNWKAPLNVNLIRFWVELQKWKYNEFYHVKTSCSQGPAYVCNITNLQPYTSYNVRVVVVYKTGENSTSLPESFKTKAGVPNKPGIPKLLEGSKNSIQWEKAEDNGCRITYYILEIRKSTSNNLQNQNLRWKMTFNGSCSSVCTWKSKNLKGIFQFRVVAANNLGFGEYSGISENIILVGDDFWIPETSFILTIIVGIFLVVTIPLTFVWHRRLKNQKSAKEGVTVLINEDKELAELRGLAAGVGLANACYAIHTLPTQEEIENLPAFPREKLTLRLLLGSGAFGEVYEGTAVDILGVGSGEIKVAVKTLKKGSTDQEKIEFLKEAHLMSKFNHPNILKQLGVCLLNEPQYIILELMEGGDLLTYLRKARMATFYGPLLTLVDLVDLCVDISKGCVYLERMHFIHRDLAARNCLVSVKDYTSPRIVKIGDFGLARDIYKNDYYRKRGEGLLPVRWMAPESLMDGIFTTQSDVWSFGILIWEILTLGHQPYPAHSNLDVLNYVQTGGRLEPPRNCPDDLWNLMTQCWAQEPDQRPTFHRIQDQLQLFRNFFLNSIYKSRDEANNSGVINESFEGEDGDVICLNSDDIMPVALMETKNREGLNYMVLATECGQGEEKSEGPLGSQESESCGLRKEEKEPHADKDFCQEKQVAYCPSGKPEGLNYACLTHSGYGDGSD

[16] = target: Testis-specific serine/threonine-protein kinase 1 (Homo sapiens) (UniProt Q9BXA7)
[17] = target: Mitogen-activated protein kinase 6 (Homo sapiens) (UniProt Q16659)
[18] = target: Maternal embryonic leucine zipper kinase (Homo sapiens) (UniProt Q14680)
[19] = target: Serine/threonine-protein kinase B-raf (Homo sapiens) (UniProt P15056)
[20] = target: Mitogen-activated protein kinase kinase kinase 1 (Homo sapiens) (UniProt Q13233)
[21] = target: LIM domain kinase 2 (Homo sapiens) (UniProt P53671)
[22] = target: Ribosomal protein S6 kinase alpha-5 (Homo sapiens) (UniProt O75582)
[23] = target: Serine/threonine-protein kinase 4 (Homo sapiens) (UniProt Q13043)
[24] = target: MAP kinase-activated protein kinase 2 (Homo sapiens) (UniProt P49137)
[25] = target: SRSF protein kinase 3 (Homo sapiens) (UniProt Q9UPE1)
[26] = target: Insulin receptor-related protein (Homo sapiens) (UniProt P14616)
[27] = target: Serine/threonine-protein kinase ULK1 (Homo sapiens) (UniProt O75385)
[28] = target: Myosin-IIIa (Homo sapiens) (UniProt Q8NEV4)
Myosin-IIIa (Homo sapiens), sequence (Q8NEV4 whole entry): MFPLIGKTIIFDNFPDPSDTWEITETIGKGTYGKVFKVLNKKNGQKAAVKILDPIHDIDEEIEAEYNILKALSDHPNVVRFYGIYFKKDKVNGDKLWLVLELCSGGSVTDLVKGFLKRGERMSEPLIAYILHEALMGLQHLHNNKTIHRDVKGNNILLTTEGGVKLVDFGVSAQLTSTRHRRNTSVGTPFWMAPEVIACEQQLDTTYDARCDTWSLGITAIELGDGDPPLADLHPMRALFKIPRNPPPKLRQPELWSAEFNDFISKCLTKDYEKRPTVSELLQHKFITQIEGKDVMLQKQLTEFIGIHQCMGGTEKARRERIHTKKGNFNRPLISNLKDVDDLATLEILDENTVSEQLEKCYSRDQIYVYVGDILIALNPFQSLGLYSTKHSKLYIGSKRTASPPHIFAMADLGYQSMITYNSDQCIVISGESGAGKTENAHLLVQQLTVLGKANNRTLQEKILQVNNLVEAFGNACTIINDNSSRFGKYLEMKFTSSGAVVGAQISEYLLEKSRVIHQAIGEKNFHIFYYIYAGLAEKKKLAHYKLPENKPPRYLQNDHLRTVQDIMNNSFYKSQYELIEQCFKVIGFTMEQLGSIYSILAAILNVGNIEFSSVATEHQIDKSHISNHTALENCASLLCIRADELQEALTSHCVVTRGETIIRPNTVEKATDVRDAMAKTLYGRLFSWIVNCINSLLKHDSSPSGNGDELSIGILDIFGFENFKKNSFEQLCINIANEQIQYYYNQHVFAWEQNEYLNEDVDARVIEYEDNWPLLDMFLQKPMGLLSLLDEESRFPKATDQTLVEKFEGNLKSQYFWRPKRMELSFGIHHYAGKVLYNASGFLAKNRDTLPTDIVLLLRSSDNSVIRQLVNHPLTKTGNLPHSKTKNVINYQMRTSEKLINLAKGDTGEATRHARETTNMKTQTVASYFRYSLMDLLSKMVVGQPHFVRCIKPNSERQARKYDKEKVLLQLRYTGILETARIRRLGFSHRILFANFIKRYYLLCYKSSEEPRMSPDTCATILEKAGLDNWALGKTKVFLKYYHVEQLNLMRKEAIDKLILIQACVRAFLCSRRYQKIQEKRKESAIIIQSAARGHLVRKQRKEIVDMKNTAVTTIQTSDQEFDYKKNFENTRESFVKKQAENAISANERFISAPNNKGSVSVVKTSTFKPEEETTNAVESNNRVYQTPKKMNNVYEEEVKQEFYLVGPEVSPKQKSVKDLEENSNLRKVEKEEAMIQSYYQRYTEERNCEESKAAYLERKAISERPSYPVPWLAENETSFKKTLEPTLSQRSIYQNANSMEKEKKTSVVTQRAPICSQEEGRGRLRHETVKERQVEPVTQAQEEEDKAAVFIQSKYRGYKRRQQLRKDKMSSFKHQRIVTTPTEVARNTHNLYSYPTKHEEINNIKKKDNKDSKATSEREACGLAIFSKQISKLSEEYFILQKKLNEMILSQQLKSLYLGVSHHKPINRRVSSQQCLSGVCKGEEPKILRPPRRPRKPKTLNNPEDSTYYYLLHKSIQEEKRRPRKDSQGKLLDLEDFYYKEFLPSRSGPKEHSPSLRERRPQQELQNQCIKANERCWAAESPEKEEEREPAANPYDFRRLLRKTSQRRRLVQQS

[29] = target: Interferon-induced, double-stranded RNA-activated protein kinase (Homo sapiens) (UniProt P19525)
Interferon-induced, double-stranded RNA-activated protein kinase (Homo sapiens), sequence (P19525 whole entry): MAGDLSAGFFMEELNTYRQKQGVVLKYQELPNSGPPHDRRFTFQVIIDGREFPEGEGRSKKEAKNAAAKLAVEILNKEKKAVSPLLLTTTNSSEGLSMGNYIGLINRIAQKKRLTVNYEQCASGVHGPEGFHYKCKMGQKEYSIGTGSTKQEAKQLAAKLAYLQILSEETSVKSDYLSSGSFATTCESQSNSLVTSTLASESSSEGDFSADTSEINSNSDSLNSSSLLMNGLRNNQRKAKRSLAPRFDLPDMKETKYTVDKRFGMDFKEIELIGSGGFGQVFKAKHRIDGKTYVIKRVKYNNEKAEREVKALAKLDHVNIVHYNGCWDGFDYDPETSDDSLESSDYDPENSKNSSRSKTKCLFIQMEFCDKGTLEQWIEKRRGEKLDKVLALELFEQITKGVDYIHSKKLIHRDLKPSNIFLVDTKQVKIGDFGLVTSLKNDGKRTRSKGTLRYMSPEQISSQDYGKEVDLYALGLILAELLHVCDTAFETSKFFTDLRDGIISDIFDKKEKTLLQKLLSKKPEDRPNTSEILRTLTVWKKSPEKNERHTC

[30] = target: Serine/threonine-protein kinase pim-3 (Homo sapiens) (UniProt Q86V86)
[31] = target: Serine/threonine-protein kinase Nek1 (Homo sapiens) (UniProt Q96PY6)
[32] = system: Tyrosine-protein kinase ABL1 (Homo sapiens), P00519 [H396P]
[33] = target: Tyrosine-protein kinase BTK (Homo sapiens) (UniProt Q06187)
[34] = system: Proto-oncogene tyrosine-protein kinase receptor Ret (Homo sapiens), P07949 [V804L]
[35] = target: Calcium/calmodulin-dependent protein kinase kinase 2 (Homo sapiens) (UniProt Q96RR4)
[36] = target: Activin receptor type-2B (Homo sapiens) (UniProt Q13705)
Activin receptor type-2B (Homo sapiens), sequence (Q13705 whole entry): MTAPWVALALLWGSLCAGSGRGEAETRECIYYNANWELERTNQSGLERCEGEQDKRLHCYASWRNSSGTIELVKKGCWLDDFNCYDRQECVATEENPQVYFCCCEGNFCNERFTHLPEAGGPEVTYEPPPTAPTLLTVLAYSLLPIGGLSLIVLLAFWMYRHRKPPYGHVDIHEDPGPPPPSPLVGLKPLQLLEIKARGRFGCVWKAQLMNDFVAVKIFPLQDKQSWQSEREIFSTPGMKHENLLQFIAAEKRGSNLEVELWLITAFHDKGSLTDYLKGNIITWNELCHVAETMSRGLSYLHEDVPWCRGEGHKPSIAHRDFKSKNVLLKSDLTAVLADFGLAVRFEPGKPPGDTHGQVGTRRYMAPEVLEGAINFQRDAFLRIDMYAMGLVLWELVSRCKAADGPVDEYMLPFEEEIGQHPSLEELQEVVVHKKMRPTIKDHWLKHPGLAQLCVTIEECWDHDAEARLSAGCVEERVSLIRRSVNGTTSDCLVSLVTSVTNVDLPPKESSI

[37] = target: Serine/threonine-protein kinase SIK2 (Homo sapiens) (UniProt Q9H0K1)
[38] = target: Receptor tyrosine-protein kinase erbB-4 (Homo sapiens) (UniProt Q15303)
[39] = target: Serine/threonine-protein kinase Nek7 (Homo sapiens) (UniProt Q8TDX7)
[40] = target: Dual specificity protein kinase CLK1 (Homo sapiens) (UniProt P49759)
[41] = target: Serine/threonine-protein kinase 38 (Homo sapiens) (UniProt Q15208)
[42] = target: Proto-oncogene tyrosine-protein kinase receptor Ret (Homo sapiens) (UniProt P07949)
[43] = target: Serine/threonine-protein kinase 33 (Homo sapiens) (UniProt Q9BYT3)
[44] = target: SNF-related serine/threonine-protein kinase (Homo sapiens) (UniProt Q9NRH2)
[45] = target: Mitogen-activated protein kinase kinase kinase 5 (Homo sapiens) (UniProt Q99683)

Q: Which residual activity [1] does the source give for `CSc1cccnc1N1CCN(Cc2nc3ccccc3[nH]2)CC1` [A-769] here?
A: The residual activity was 100%.

Q: What about the residual activity [2] of the same compound?
A: The residual activity was 98%.

Q: And the residual activity [3]?
A: The residual activity was 100%.

Q: And the residual activity [4]?
A: The residual activity was 59%.

Q: What about the residual activity [5] of the same compound?
A: The residual activity was 100%.

Q: What about the residual activity [6] of the same compound?
A: The residual activity was 100%.

Q: And the residual activity [7]?
A: The residual activity was 73%.

Q: What about the residual activity [8] of the same compound?
A: Its residual activity is 100%.

Q: What about the residual activity [9] of the same compound?
A: The residual activity was 100%.

Q: And the residual activity [10]?
A: Its residual activity is 100%.

Q: And the residual activity [11]?
A: Its residual activity is 100%.

Q: And the residual activity [12]?
A: The residual activity was 91%.

Q: And the residual activity [13]?
A: Its residual activity is 96%.

Q: And the residual activity [14]?
A: The residual activity was 100%.

Q: And the residual activity [15]?
A: The residual activity was 100%.

Q: And the residual activity [16]?
A: The residual activity was 100%.

Q: What about the residual activity [17] of the same compound?
A: Its residual activity is 100%.

Q: And the residual activity [18]?
A: The residual activity was 46%.

Q: What about the residual activity [19] of the same compound?
A: The residual activity was 89%.

Q: What about the residual activity [20] of the same compound?
A: Its residual activity is 70%.

Q: What about the residual activity [21] of the same compound?
A: The residual activity was 100%.

Q: What about the residual activity [22] of the same compound?
A: Its residual activity is 100%.

Q: What about the residual activity [23] of the same compound?
A: Its residual activity is 85%.

Q: What about the residual activity [24] of the same compound?
A: The residual activity was 80%.

Q: And the residual activity [25]?
A: The residual activity was 100%.

Q: And the residual activity [26]?
A: Its residual activity is 94%.

Q: What about the residual activity [27] of the same compound?
A: Its residual activity is 88%.

Q: And the residual activity [28]?
A: Its residual activity is 100%.

Q: And the residual activity [29]?
A: Its residual activity is 100%.

Q: And the residual activity [30]?
A: Its residual activity is 94%.

Q: What about the residual activity [31] of the same compound?
A: Its residual activity is 100%.

Q: And the residual activity [32]?
A: Its residual activity is 75%.

Q: What about the residual activity [33] of the same compound?
A: Its residual activity is 79%.

Q: What about the residual activity [34] of the same compound?
A: The residual activity was 98%.

Q: And the residual activity [35]?
A: The residual activity was 100%.

Q: What about the residual activity [36] of the same compound?
A: The residual activity was 98%.

Q: What about the residual activity [37] of the same compound?
A: The residual activity was 100%.

Q: What about the residual activity [38] of the same compound?
A: Its residual activity is 83%.

Q: What about the residual activity [39] of the same compound?
A: Its residual activity is 100%.

Q: And the residual activity [40]?
A: Its residual activity is 80%.

Q: And the residual activity [41]?
A: The residual activity was 88%.

Q: What about the residual activity [42] of the same compound?
A: Its residual activity is 94%.

Q: And the residual activity [43]?
A: The residual activity was 91%.

Q: What about the residual activity [44] of the same compound?
A: The residual activity was 100%.

Q: And the residual activity [45]?
A: Its residual activity is 98%.

Q: Which results are given for `c1ccc(N2CCN(Cc3nc4ccccc4[nH]3)CC2)nc1` [ABT-724]?
A: residual activity [1]: 100%; residual activity [2]: 91%; residual activity [3]: 90%; residual activity [4]: 100%; residual activity [5]: 93%; residual activity [6]: 100%; residual activity [7]: 100%; residual activity [8]: 98%; residual activity [9]: 100%; residual activity [10]: 100%; residual activity [11]: 95%; residual activity [12]: 100%; residual activity [13]: 85%; residual activity [14]: 100%; residual activity [15]: 100%; residual activity [16]: 100%; residual activity [17]: 100%; residual activity [18]: 100%; residual activity [19]: 100%; residual activity [20]: 99%; residual activity [21]: 100%; residual activity [22]: 85%; residual activity [23]: 100%; residual activity [24]: 100%; residual activity [25]: 100%; residual activity [26]: 97%; residual activity [27]: 100%; residual activity [28]: 100%; residual activity [29]: 100%; residual activity [30]: 100%; residual activity [31]: 100%; residual activity [32]: 87%; residual activity [33]: 96%; residual activity [34]: 100%; residual activity [35]: 91%; residual activity [36]: 100%; residual activity [37]: 100%; residual activity [38]: 95%; residual activity [39]: 100%; residual activity [40]: 100%; residual activity [41]: 89%; residual activity [42]: 100%; residual activity [43]: 97%; residual activity [44]: 100%; residual activity [45]: 93%
